The text below walks through data of US20240366571A1, “MODULATORS OF SK4 POTASSIUM CHANNEL AND USES THEREOF” (Ramot at Tel-Aviv University Ltd., priority 2022, published 2024).

What is called inhibition is how much of the control response was suppressed.

“Also recorded” adds a separate entry of the source. Where two headings read alike, the source gives them in different places.

For test [1], the target named is T1, human SK3 (Homo sapiens, UniProt Q9UGI6).
T1 construct: expressed in transfected cells; host or cells: CHO cells
The test is described as follows: Whole-cell patch-clamp of SK3 currents in CHO cells. The conditions noted are these: 20 μM. In kind it is cell-based. The protocol:
(§1) Constructs: For CHO cell transfection, the following were cloned: human SK1, rat SK2, human SK3, and rat calmodulin into the pcDNA3 vector, human SK4 into pEGFP-C1 vector, and PIP4,5-kinase into an IRES-dsRed plasmid. The mutations were introduced using the PCR-based QuikChange™ site-directed mutagenesis (Stratagene®) and were verified by full sequencing of the entire plasmid vector.
Cell Culture and Transfection: Chinese hamster ovary (CHO) cells were grown in Dulbecco's modified Eagle's medium supplemented with 2 millimolar (mM) glutamine, 10% fetal calf serum, and antibiotics. In brief, 40,000 cells seeded on poly-L-lysine-coated glass coverslips (13 millimeter (mm) in diameter) in a 24-multiwell plate were transfected with 0.5 microgram (μg) pEGFP-SK4/0.5 μg mutant SK4, 1.2 μg dsRed-PIP4,5-kinase or with 1 μg SK1/SK2/SK3 together with pIRES-CD8 (0.3 μg) as a marker for transfection. […]
Whole-cell patch-clamp recording: Voltage-clamp recordings were performed using the whole-cell configuration of the patch-clamp technique. […] The intracellular pipette solution contained 130 mM KCl, 5 mM EGTA, 10 mM HEPES, pH 7.3 (adjusted with KOH), and CaCl2 calculated for a final concentration of 1 μM free-Ca^2+, by MAXCHELATOR (WEBMAXC STANDARD) software, with sucrose added to adjust osmolarity to 290 mosM. […]
Background: Patch clamp records ionic current or voltage across a cell membrane.

Test [2] concerns the target T2, human SK1 (Homo sapiens, UniProt Q92952).
T2 construct: expressed in transfected cells; host or cells: CHO cells
The test is described as follows: Whole-cell patch-clamp of SK1 currents in CHO cells. In kind it is cell-based. The conditions noted are these: 20 μM. The protocol: as §1
Cell Culture and Transfection: Chinese hamster ovary (CHO) cells were grown in Dulbecco's modified Eagle's medium supplemented with 2 millimolar (mM) glutamine, 10% fetal calf serum, and antibiotics. In brief, 40,000 cells seeded on poly-L-lysine-coated glass coverslips (13 millimeter (mm) in diameter) in a 24-multiwell plate were transfected with 0.5 microgram (μg) pEGFP-SK4/0.5 μg mutant SK4, 1.2 μg dsRed-PIP4,5-kinase or with 1 μg SK1/SK2/SK3 together with pIRES-CD8 (0.3 μg) as a marker for transfection. Transfection was performed using TransIT-LT1 Transfection Reagent (Mirus Bio) according to the manufacturer's protocol. For electrophysiology, transfected cells were visualized approximately 40 hours after transfection with a Zeiss Axiovert 35 inverted florescence microscope.
Whole-cell patch-clamp recording: Voltage-clamp recordings were performed using the whole-cell configuration of the patch-clamp technique. Signals were amplified using an […] patch-clamp amplifier (Molecular Devices), sampled at 5 kHz and filtered at 2.4 kHz via a four pole Bessel low pass filter. Data were acquired using pClamp™ 10.5 software in conjunction with an Axon™ DigiData® 1440A interface (Molecular Devices). The patch pipettes were pulled from borosilicate glass (Harvard Apparatus) with a resistance of 3-5 megaohms (MΩ). The intracellular pipette solution contained 130 mM KCl, 5 mM EGTA, 10 mM HEPES, pH 7.3 (adjusted with KOH), and CaCl2 calculated for a final concentration of 1 μM free-Ca^2+, by MAXCHELATOR (WEBMAXC STANDARD) software, with sucrose added to adjust osmolarity to 290 mosM. […]

For test [3], the target named is T3, WT SK4 channel co-transfected with CaM (Homo sapiens, UniProt O15554).
T3 construct: expressed in transfected cells; host or cells: CHO cells
As to the kind of experiment: Whole-cell patch-clamp of WT SK4 channel co-transfected with WT CaM or CaM mutants. It counts as cell-based. Here is the method:
as §1
(§2) Whole-cell patch-clamp recording: Voltage-clamp recordings were performed using the whole-cell configuration of the patch-clamp technique. Signals were amplified using an […] patch-clamp amplifier (Molecular Devices), sampled at 5 kHz and filtered at 2.4 kHz via a four pole Bessel low pass filter. Data were acquired using pClamp™ 10.5 software in conjunction with an Axon™ DigiData® 1440A interface (Molecular Devices). The patch pipettes were pulled from borosilicate glass (Harvard Apparatus) with a resistance of 3-5 megaohms (MΩ). The intracellular pipette solution contained 130 mM KCl, 5 mM EGTA, 10 mM HEPES, pH 7.3 (adjusted with KOH), and CaCl2 calculated for a final concentration of 1 μM free-Ca^2+, by MAXCHELATOR (WEBMAXC STANDARD) software, with sucrose added to adjust osmolarity to 290 mosM. The external solution (310 mosM) contained 140 mM NaCl, 4 mM KCl, 1.8 mM CaCl2, 1.2 mM MgCl2, 11 mM glucose, and 5.5 mM HEPES adjusted with NaOH to pH 7.3. CHO cells were held at −90 millivolt (mV) and SK4 K^+ currents were activated using a voltage ramp protocol from −100 mV to +60 mV for 150 milliseconds. Electrophysiological data analysis was performed using the Clampfit program (pClamp™ 10.5; Molecular Devices).
(§3) To examine ex-vivo the interactions between BA6b9 and the simulated residues seen in FIG. 5B, residues that are in atomic proximity and are expected to interact with BA6b9 were mutated. Such mutated residues were, for example, R191 and H192 of linker S4-S5, M72 and M76 of the CaM linker as well as L19, E22, Y179, S181, A184, Q187 and R189, which are more distant from BA6b9.

The target of test [4] is T4, SK4 channel mutants (Homo sapiens, UniProt O15554, R352Q).
T4 construct: expressed in transfected cells; host or cells: CHO cells
The test is described as follows: Whole-cell patch-clamp of SK4 channel mutants. In kind it is cell-based. As to conditions: read-out: inhibition of SK4 mutant R352Q current. The protocol:
as §1, §2, §3

The target of test [5] is T5, SK4 channel mutants (Homo sapiens, UniProt O15554, R191A).
T5 construct: expressed in transfected cells; host or cells: CHO cells
As to the kind of experiment: Whole-cell patch-clamp of SK4 channel mutants. It counts as cell-based. The conditions noted are these: read-out: inhibition of SK4 mutant R191A current. Here is the method: as §1, §2, §3

In test [6] the target is T6, SK4 channel mutants (Homo sapiens, UniProt O15554, H192A).
T6 construct: expressed in transfected cells; host or cells: CHO cells
The test is described as follows: Whole-cell patch-clamp of SK4 channel mutants. In kind it is cell-based. As to conditions: read-out: inhibition of SK4 mutant H192A current. Here is the method:
as §1, §2, §3

Test [7] deals with T7, SK4 channel mutants (Homo sapiens, UniProt O15554, E22A).
T7 construct: expressed in transfected cells; host or cells: CHO cells
As to the kind of experiment: Whole-cell patch-clamp of SK4 channel mutants. In kind it is cell-based. As to conditions: read-out: inhibition of SK4 mutant E22A current. The protocol:
as §1, §2, §3

In test [8] the test system is rat model of heart failure (HF) post-myocardial infarction (MI). As to the kind of experiment: Rat model of heart failure post-myocardial infarction. In kind it is in vivo. The conditions noted are these: vs vehicle. Here is the method: […] Experimental setup and details are described, for example, in Murninkas et al. Am J Physiol-Heart Circul Physiol. (2021), 320, H713-H24.
Following electrode implantation and animal recovery, baseline EP (electrophysiological) measurements were performed followed by random division of the animals to treatment with the exemplary compound vs. treatment with vehicle.
Masson-trichrome staining: staining was performed according to a standard procedure, as described, for example, in N. Foot, Stain Technology (2009), Volume 8, 1933—Issue 3, 101-110.

Setting [9] is: 20 mg/kg daily for 2 weeks from one week post-MI.

On to `CCCCCCCn1c(=O)oc2ccccc21` [BA6b9, 3-heptylbenzo[d]oxazol-2(3H)-one], for which, in test [1], the “SK3 activity in comparison with control” value was 95%. The “SK3 drug-to-control current ratio” value in test [1] came to 0.95. The “SK1 activity in comparison with control” value in test [2] amounted to 118%. Moreover, the “SK1 drug-to-control current ratio” value in test [2] was 1.18. Moreover, the “effect on SK1 currents (representative trace)” value in test [2] is “nearly nullified effect; also recorded: did not lead to modulation”. Also, the “modulation of WT SK4 co-transfected with CaM mutant M72A (representative trace)” value in test [3] (20 μM) was “not indicating modulation”. Moreover, the inhibition at 20 µM turned out to be 0% in test [3] (read-out: inhibition of WT SK4 co-transfected with CaM mutant M72A); 19% in test [3] (read-out: inhibition of WT SK4 co-transfected with CaM mutant M76A); 47% in test [3] (read-out: inhibition of WT SK4 co-transfected with WT CaM); 31% in test [4]; 30% in test [5]; 16% in test [6]. Further, the inhibition at 20 µM in test [7] worked out at 56%. Moreover, the AF induction result in test [8] (setting [9]) was “markedly attenuates”. In addition, in test [8] (setting [9]), the “EF (ejection fraction)” value is on record as “does not affect”. In test [8] (setting [9]), the “total AF duration” value is “markedly attenuates”. Further, the LA fibrosis result in test [8] (Masson-trichrome staining after post-MI treatment) is “reduction”. The “LA smooth muscle actin (SMA)” value in test [8] (after post-MI treatment) is “reduction”.
